Data on one compound can be found in patent publication US8889705B2, “Noscapine analogs and their use in treating cancers” (Emory University, priority 2007, dated 2014).

Entries after “also recorded” stand apart in the source; their conditions may differ.

In series [1] the target is T1, tubulin.
T1 construct: other: 2 μM tubulin, 45 min at 37° C., double reciprocal plot; rate and extent of tubulin polymerization; other: 25 μM or 100 μM
The series is described as follows: Tubulin binding assay (fluorescence titration, quenching of intrinsic tubulin fluorescence). The conditions noted are these: 2 μM tubulin, 45 min at 37° C., double reciprocal plot; read-out: dissociation constant (Kd) for binding to tubulin. Further details: species or system mammalian. Here is the method:
Fluorescence titration for determining the tubulin binding parameters was performed as described previously (Gupta and Panda, 2002). In brief, 9-nitro-nos (0-100 μM) was incubated with 2 μM tubulin in 25 mM PIPES, pH 6.8, 3 mM MgSO4 and 1 mM EGTA for 45 min at 37° C. The relative intrinsic fluorescence intensity of tubulin was then monitored in a JASCO FP-6500 spectrofluorometer (JASCO, Tokyo, Japan) using a cuvette of 0.3-cm path length, and the excitation wavelength was 295 nm. The fluorescence emission intensity of 9-nitro-nos at this excitation wavelength was negligible. A 0.3-cm path-length cuvette was used to minimize the inner filter effects caused by the absorbance of 9-nitro-nos at higher concentration ranges. In addition, the inner filter effects were corrected using a formula Fcorrected=Fobserved·antilog [(Aex+Aem)/2], where Aex is the absorbance at the excitation wavelength and Aem is the absorbance at the emission wavelength. The dissociation constant (Kd) was determined by the formula: 1/B=Kd/[free ligand]+1, where B is the fractional occupancy and [free ligand] is the concentration of free noscapine or 9-nitro-nos. The fractional occupancy (B) was determined by the formula B=ΔF/ΔFmax, where ΔF is the change in fluorescence intensity when tubulin and its ligand are in equilibrium and ΔFmax is the value of maximum fluorescence change when tubulin is completely bound with its ligand. ΔFmax was calculated by plotting 1/ΔF versus 1/ligand using total ligand concentration as the first estimate of free ligand concentration.
Fluorescence titration for determining the tubulin binding parameters was performed as described previously. In brief, 9-F-nos, 9-Cl-nos, 9-Br-nos or 9-I-nos (0-100 μM) was incubated with 2 μM tubulin in 25 mM PIPES, pH 6.8, 3 mM MgSO4, and 1 mM EGTA for 45 min at 37° C. The relative intrinsic fluorescence intensity of tubulin was then monitored in a JASCO FP-6500 spectrofluorometer (JASCO, Tokyo, Japan) using a cuvette of 0.3-cm path length, and the excitation wavelength was 295 nm. The fluorescence emission intensity of noscapine and its derivatives at this excitation wavelength was negligible. A 0.3-cm path-length cuvette was used to minimize the inner filter effects caused by the absorbance of these agents at higher concentration ranges. In addition, the inner filter effects were corrected using a formula F corrected=F observe·antilog [(Aex+Aem)/2], where Aex is the absorbance at the excitation wavelength and Aem is the absorbance at the emission wavelength. The dissociation constant (Kd) was determined by the formula: 1/B=Kd/[free ligand]+1, where B is the fractional occupancy and [free ligand] is the concentration of 9-F-nos, 9-Cl-nos, 9-Br-nos or 9-I-nos. The fractional occupancy (B) was determined by the formula B=ΔF/ΔFmax, where ΔF is the change in fluorescence intensity when tubulin and its ligand are in equilibrium and ΔFmax is the value of maximum fluorescence change when tubulin is completely bound with its ligand. ΔFmax was calculated by plotting 1/ΔF versus 1/[free ligand].

For series [2], the system named is T1, tubulin. Kind of series: Tubulin polymerization assay (light scattering at 550 nm). It counts as biochemical, mammalian. Conditions: 25 μM or 100 μM. Here is the method: Mammalian brain tubulin (1.0 mg/ml) was mixed with different concentrations of 9-nitro-nos (25 or 100 μM) at 0° C. in an assembly buffer (100 mM PIPES at pH 6.8, 3 mM MgSO4, 1 mM EGTA, 1 mM GTP, and 1M sodium glutamate). Polymerization was initiated by raising the temperature to 37° C. in a water bath. The rate and extent of the polymerization reaction were monitored by light scattering at 550 nm, using a 0.3-cm path length cuvette in a JASCO FP-6500 spectrofluorometer (JASCO, Tokyo, Japan) for 30 minutes.

Series [3] deals with normal human fibroblast cells. Kind of series: Cell cycle analysis (propidium iodide, flow cytometry). The series is classed as cell-based. The conditions noted are these: 100 μM. Here is the method: The flow cytometric evaluation of the cell cycle status was performed as described previously (Zhou et al., 2003). Briefly, 2×10^6 cells were centrifuged, washed twice with ice-cold PBS, and fixed in 70% ethanol. Tubes containing the cell pellets were stored at 4° C. for at least 24 hours. Cells were then centrifuged at 1000×g for 10 min and the supernatant was discarded. The pellets were washed twice with 5 ml of PBS and then stained with 0.5 ml of propidium iodide (0.1% in 0.6% Triton-X in PBS) and 0.5 ml of RNase A (2 mg/ml) for 45 minutes in dark. Samples were then analyzed on a FACSCalibur flow cytometer (Beckman Coulter Inc., Fullerton, Calif.).

Series [4] relates to CEM, CEM/VLB100, CEM/VM-1-5, 1A9 and 1A9/PTX22 cells. Kind of series: Immunofluorescence microscopy (microtubule and nuclear morphology). It counts as cell-based, human. Conditions: 72 hours. Here is the method: Cells adhered to poly-L-lysine coated coverslips were treated with 9-nitro-nos for 72 hours. After treatment, cells were fixed with cold (−20° C.) methanol for 5 min and then washed with phosphate-buffered saline (PBS) for 5 min. Non-specific sites were blocked by incubating with 100 μl of 2% BSA in PBS at 37° C. for 15 min. A mouse monoclonal antibody against α-tubulin (DM1A, Sigma) was diluted 1:500 in 2% BSA/PBS (100 μl) and incubated with the coverslips for 2 hours at 37° C. Cells were then washed with 2% BSA/PBS for 10 min at room temperature before incubating with a 1:200 dilution of a fluorescein-isothiocyanate (FITC)-labeled goat anti-mouse IgG antibody (Jackson ImmunoResearch, Inc., West Grove, Pa.) at 37° C. for 1 hour. Coverslips were then rinsed with 2% BSA/PBS for 10 min and incubated with propidium iodide (0.5 μg/ml) for 15 min at room temperature before they were mounted with Aquamount (Lerner Laboratories, Pittsburgh, Pa.) containing 0.01% 1,4-diazobicyclo(2,2,2)octane (DABCO, Sigma). Cells were then examined using confocal microscopy for microtubule morphology, and nuclear morphology to visualize DNA fragmentation (at least 100 cells were examined per condition).

In the case of `COc1ccc2c(c1OC)C(=O)O[C@@H]2[C@H]1c2c(c([N+](=O)[O-])c3c(c2OC)OCO3)CCN1C` [9-nitro-nos, (S)-6,7-dimethoxy-3-((R)-4-methoxy-6-methyl-9-nitro-5,6,7,8-tetrahydro-[1,3]dioxolo[4,5-g]isoquinolin-5-yl)isobenzofuran-1(3H)-one], the Kd on tubulin [1] turned out to be 86 ± 6 µM. Moreover, the “rate and extent of tubulin polymerization” value in the series on tubulin [2] was “did not inhibit the rate or extent of tubulin polymerization”. The “cell cycle profile of normal human fibroblast cells” value in series [3] was “did not observe any perturbations in the cell cycle profile; also recorded: did not alter the cell cycle progression profile”. Besides, the “cellular and nuclear morphology (apoptosis)” value in series [4] is “extensive terminal apoptotic figures with fragmented DNA pieces and perturbed microtubule arrays”.
